≈ marks a conversion by molar mass, not a printed value. Like-named read-outs stand apart in the source and are kept apart here.
Assays:
[1] = system: Candida albicans; experiment: Minimal Inhibitory Concentration (MIC) assay, broth microdilution per CLSI; type: cell-based; conditions: Candida albicans, read-out: Minimum Inhibitory Concentrations against Yeast Isolates, Candida albicans;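 also: two read times 24 hr and 48 hr of incubation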
Experimental: (§1) The in vitro activities of the inventive compounds (compound(s) herein) against fungi and/or yeasts were determined with isolates Candida albicans, Candida glabrata and Candida parapsilosis. The comparator compounds included fluconazole, caspofungin and amphotericin B.
(§2) The compounds were supplied as a powder, and were dissolved in dimethylsulfoxide (DMSO) the day of assay. Stock solutions were prepared at 10 mg/mL and diluted to a starting stock concentration of 2.56 mg/mL. Amphotericin B was dissolved in DMSO to a stock concentration of 2.56 mg/mL. Fluconazole was dissolved in deionized water to a stock concentration of 2.56 mg/mL. Caspofungin was received as a stock solution of 3.2 mg/mL in DMSO and was diluted to a starting stock concentration of 2.56 mg/mL.
(§3) The test organisms and reference isolates were streaked for isolation on Sabouraud agar medium (yeasts) or potato dextrose agar (fungi). Colonies were picked by swab from the medium and resuspended in the appropriate broth containing cryoprotectant. The suspensions were aliquoted into cryogenic vials and maintained at −80° C.
(§4) Prior to testing, the yeast isolates were streaked from the frozen vials onto Sabouraud dextrose agar. The plates were incubated overnight at 35° C. The fungal isolate was grown on potato dextrose agar slants and was incubated for 7-10 days at room temperature.
(§5) Both yeast and fungal isolates were tested in RPMI medium buffered with 0.165 M MOPS (3-(N-morpholino)propanesulfonic acid). The pH of the medium was adjusted to 7.0 with 1 N NaOH. The medium was sterile filtered using a 0.2 um PES (polyethersulfone) filter and stored at 4° C. until used.
(§6) The MIC assay method followed the procedure described by the Clinical and Laboratory Standards Institute (CLSI; 1, 2, 3) and employed automated liquid handlers to conduct serial dilutions and liquid transfers. Automated liquid handlers included the Multidrop 384 (Labsystems, Helsinki, Finland), Biomek 2000 and Biomek FX (Beckman Coulter, Fullerton Calif.). The wells in columns 2-12 in standard 96-well microdilution plates (Costar 3795) were filled with 150 ul of 100% DMSO. These would become the ‘mother plates’ from which ‘daughter’ or test plates would be prepared. The compounds (300 uL at 40× the desired top concentration in the test plates) were dispensed into the appropriate well in Column 1 of the mother plates. The Biomek 2000 was used to make serial 1:1 dilutions through Column 11 in the “mother plate”. The wells of Column 12 contained no compounds and were the organism growth control wells.
(§7) The daughter plates were loaded with 185 uL per well of RPMI described above using the Multidrop 384. The daughter plates were prepared using the Biomek FX which transferred 5 μL of the compound solution from each well of a mother plate to the corresponding well of the daughter plate in a single step.
(§8) Standardized inoculum of each organism was prepared per CLSI methods. For yeast isolates, colonies were picked from the streak plate and a suspension was prepared in 0.85% saline. For the fungal isolate, 1 mL of 0.85% saline was dispensed onto the potato dextrose agar slant that had been inoculated 7-10 days previously. Using a swab, a suspension of the fungus was made. After a short time to allow the heavy particles to settle out, a small quantity of the supernatant was dispensed into 0.85% saline and the suspension adjusted to equal a 0.5 McFarland turbidity standard. Both yeast and fungal isolates were diluted 1:100 in RPMI and then transferred to compartments of sterile reservoirs divided by length (Beckman Coulter). The Biomek 2000 was used to inoculate the plates. Daughter plates were placed on the Biomek 2000 work surface reversed so that inoculation took place from low to high compound concentration. The Biomek 2000 delivered 10 μL of standardized inoculum into each well. Thus, the wells of the daughter plates ultimately contained 185 uL of RPMI, 5 uL of the compound solution, and 10 uL of inoculum. […]

[2] = system: Candida parapsilosis; experiment: as above; type: cell-based; conditions: Lodderomyces parapsilosis, read-out: Minimum Inhibitory Concentrations against Yeast Isolates, Candida parapsilosis;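 also: two read times 24 hr and 48 hr of incubation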
Experimental: as §1, §2, §3, §4, §5, §6, §7, §8

[3] = system: Candida glabrata; experiment: as above; type: cell-based; conditions: Nakaseomyces glabratus, read-out: Minimum Inhibitory Concentrations against Yeast Isolates, Candida glabrata;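 also: two read times 24 hr and 48 hr of incubation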
Experimental: as §1, §2, §3, §4, §5, §6, §7, §8

[4] = system: C. glabrata; experiment: Checkerboard FIC assay in combination with fluconazole (MIC alone and in combination, FICI); type: cell-based, Candida glabrata; conditions: for FICI of combination resulting in fluconazole MIC of: 2 ug/mL / FICI of combination resulting in fluconazole MIC of: 4 ug/mL / FICI of combination resulting in fluconazole MIC of: 8 ug/mL: FICI calculated using a fluconazole MIC of 16 μg/mL; for FICI of combination resulting in fluconazole MIC of: 2 ug/mL (value in parenthesis) / FICI of combination resulting in fluconazole MIC of: 4 ug/mL (value in parenthesis) / FICI of combination resulting in fluconazole MIC of: 8 ug/mL (value in parenthesis): FICI using a fluconazole MIC of 128 μg/mL; for MIC: Nakaseomyces glabratus; for Concentration of Methylgene compound to synergize fluconazole MIC to 2 ug/mL / Concentration of Methylgene compound to synergize fluconazole MIC to 4 ug/mL / Concentration of Methylgene compound to synergize fluconazole MIC to 8 ug/mL: in combination with fluconazole; for Concentration of Methylgene compound to synergize fluconazole MIC to 2 ug/mL: fluconazole MIC lowered to 2 ug/mL; for Concentration of Methylgene compound to synergize fluconazole MIC to 4 ug/mL: fluconazole MIC lowered to 4 ug/mL; for Concentration of Methylgene compound to synergize fluconazole MIC to 8 ug/mL: fluconazole MIC lowered to 8 ug/mL; for Multiple of compound MIC to synergize fluconazole MIC to 2 ug/mL / Multiple of compound MIC to synergize fluconazole MIC to 4 ug/mL / Multiple of compound MIC to synergize fluconazole MIC to 8 ug/mL: concentration in combination as multiple of the compound's MIC alone; for Multiple of compound MIC to synergize fluconazole MIC to 2 ug/mL: fluconazole MIC 2 ug/mL; for Multiple of compound MIC to synergize fluconazole MIC to 4 ug/mL: fluconazole MIC 4 ug/mL; for Multiple of compound MIC to synergize fluconazole MIC to 8 ug/mL: fluconazole MIC 8 ug/mL
Experimental: The ability of the compounds to synergize with azoles against C. glabrata was evaluated by the checkerboard assay, a common laboratory method used to evaluate synergy, antagonism, and indifference using fractional inhibitory concentrations (FICs) and FIC indices (FICI).
The test compounds were supplied as a powder and dissolved in dimethylsulfoxide (DMSO) on the day of assay. Stock solutions were prepared at 640 ug/mL. Fluconazole was dissolved in deionized water to a stock concentration of 320 ug/mL. All test articles were in solution under these conditions.
as §3, §4, §5
FIC values were determined using a broth microdilution method (CLSI; 1, 3). To prepare the test plates, automated liquid handlers (Multidrop 384, Labsystems, Helsinki, Finland; Biomek 2000 and Biomek FX, Beckman Coulter, Fullerton Calif.) were used to conduct serial dilutions and liquid transfers.
The wells of standard 96-well microdilution plates (Costar 3795) were filled with 150 uL of DMSO in columns 2-12. Three hundred microliters of each test compound was added to each well in Column 1 of the plates. The Biomek 2000 was used to make eleven 2-fold serial dilutions in each of these “test compound mother” plates. The wells of the “fluconazole mother plates” were filled with 150 uL of sterile water in rows B-H. Row A of these plates was filled with 300 uL of the fluconazole stock solution. Serial 2-fold dilutions were then prepared from top to bottom by hand, using a multichannel pipette in rows B-G. The “daughter plates” were loaded with 180 uL of RPMI using the Multidrop 384. The Biomek FX was used to transfer 5 uL of compound solution from each well of a fluconazole mother plate to the corresponding well in all of the daughter plates in a single step. Then the Biomek FX was used to transfer 5 uL of compound solution from each well of a test compound mother plate to the corresponding well of the corresponding test compound daughter plate (already containing fluconazole at the appropriate concentrations) in a single step. Row H and Column 12 each contained serial dilutions of the test agent and fluconazole alone, respectively, for determination of the MIC.
Standardized inoculum of each organism was prepared per CLSI methods (CLSI; 1, 3). For yeast isolates, colonies were picked from the primary plate and a suspension was prepared in 0.85% saline to equal a 0.5 McFarland turbidity standard. For the fungal isolate, 1 mL of 0.85% saline was dispensed onto a potato dextrose agar slant onto which the isolate had been inoculated 7-10 days previously. Using a swab, a suspension of the fungus was made. After a short time to allow the heavy particles to settle out, a small quantity of the supernatant was dispensed into 0.85% saline and the suspension was adjusted to equal a 0.5 McFarland turbidity standard. Both yeast and fungal isolates were diluted 1:100 in RPMI and then transferred to compartments of sterile reservoirs divided by length (Beckman Coulter). The Biomek 2000 was used to inoculate the plates. […]

[5] = 24 hr reading (first value of cell 24 hr/48 hr)
[6] = 48 hr reading (second value of cell 24 hr/48 hr)
[7] = MIC of the example compound alone against C. glabrata in the checkerboard assay, approximately 48 hr, read-out: Methylgene MIC
[8] = test compound alone, C. glabrata, approx. 48 hr at 35° C., read-out: Compound MIC

Row | SMILES | MIC [1, 5] | MIC [1, 6] | MIC [2, 5] | MIC [2, 6] | MIC [3, 5] | MIC [3, 6] | FICI of combination resulting in fluconazole MIC of: 2 ug/mL ([4]; C. glabrata) | FICI of combination resulting in fluconazole MIC of: 4 ug/mL ([4]; C. glabrata) | FICI of combination resulting in fluconazole MIC of: 8 ug/mL ([4]; C. glabrata) | FICI of combination resulting in fluconazole MIC of: 2 ug/mL (value in parenthesis) ([4]; C. glabrata) | FICI of combination resulting in fluconazole MIC of: 4 ug/mL (value in parenthesis) ([4]; C. glabrata) | FICI of combination resulting in fluconazole MIC of: 8 ug/mL (value in parenthesis) ([4]; C. glabrata) | MIC [4, 7] | MIC [4, 8] | Concentration of Methylgene compound to synergize fluconazole MIC to 2 ug/mL ([4]; C. glabrata) | Concentration of Methylgene compound to synergize fluconazole MIC to 4 ug/mL ([4]; C. glabrata) | Concentration of Methylgene compound to synergize fluconazole MIC to 8 ug/mL ([4]; C. glabrata) | Multiple of compound MIC to synergize fluconazole MIC to 2 ug/mL [4] | Multiple of compound MIC to synergize fluconazole MIC to 4 ug/mL [4] | Multiple of compound MIC to synergize fluconazole MIC to 8 ug/mL [4]
1 | O=C(Cc1ccc(CCCCc2ccc(CC(=O)NO)cc2)cc1)NO [Example 7, 2,2′-(4,4′-(butane-1,4-diyl)bis(4,1-phenylene))bis(N-hydroxyacetamide)] | > 8 µg/mL | > 8 µg/mL | > 8 µg/mL | > 8 µg/mL | 0.5 µg/mL (≈ 1.4 µM) | > 8 µg/mL | > 0.125 | > 0.188 | > 0.281 | > 0.078 | > 0.094 | > 0.094 | > 4 µg/mL | > 4 µg/mL | 0.5 µg/mL | 0.5 µg/mL | 0.25 µg/mL | – | – | –
2 | O=C(Cc1ccc(CCCCC2CCCCC2)cc1)NO [Example 8, 2-(4-(4-cyclohexylbutyl)phenyl)-N-hydroxyacetamide] | 0.25 µg/mL (≈ 0.864 µM) | 0.25 µg/mL (≈ 0.864 µM) | 0.12 µg/mL (≈ 0.415 µM) | 0.25 µg/mL (≈ 0.864 µM) | 0.12 µg/mL (≈ 0.415 µM) | 0.12 µg/mL (≈ 0.415 µM) | 0.543 | 0.605 | 0.730 | 0.496 | 0.511 | 0.543 | 0.25 µg/mL | 0.25 µg/mL | 0.12 µg/mL | 0.12 µg/mL | 0.12 µg/mL | (½x) | (½x) | (½x)
3 | COc1ccc(CCCCc2ccc(CC(=O)NO)cc2)cc1 [Example 9, N-hydroxy-2-(4-(4-(4-methoxyphenyl)butyl)phenyl)acetamide] | 1 µg/mL (≈ 3.19 µM) | 1 µg/mL (≈ 3.19 µM) | 1 µg/mL (≈ 3.19 µM) | 1 µg/mL (≈ 3.19 µM) | 0.5 µg/mL (≈ 1.6 µM) | > 4 µg/mL | 0.625 | 0.490 | 0.620 | 0.516 | 0.271 | 0.183 | 0.5 µg/mL | 0.5 µg/mL | 0.25 µg/mL | 0.12 µg/mL | 0.06 µg/mL | (½x) | (¼x) | (⅛x)
4 | COCCOCCOCCOCCOCCOc1ccc(CCCCc2ccc(CC(=O)NO)cc2)cc1 [Example 10, 2-(4-(4-(4-(2,5,8,11,14-pentaoxahexadecan-16-yloxy)phenyl)butyl)phenyl)-N-hydroxyacetamide] | > 64 µg/mL | > 64 µg/mL | > 64 µg/mL | > 64 µg/mL | > 64 µg/mL | > 64 µg/mL | 0.375 | 0.500 | 0.625 | 0.266 | 0.281 | 0.188 | 2 µg/mL | 2 µg/mL | 0.5 µg/mL | 0.5 µg/mL | 0.25 µg/mL | (¼x) | (¼x) | (⅛x)
